# Assays:
# [1] = biological target: CDK2 (human) (UniProt P24941); experiment: Cell-Based Assay
# [2] = biological target: CDK2 (UniProt P24941); experiment: Enzyme Assay
SMILES,IC50 ([1]; hct 116) [µM],IC50 ([1]; mda-mb-435) [µM],IC50 ([1]; sw480) [µM],IC50 [2] [µM]
O=[N+]([O-])c1ccc2c(c1)C(c1ccccc1Cl)=Nc1c(n[nH]c1-c1cccc(C(F)(F)F)c1)N2,10 to 30,–,–,10 to 30
O=[N+]([O-])c1ccc2c(c1)C(c1ccccc1Cl)=Nc1c(n[nH]c1-c1cc3ccccc3o1)N2,10 to 30,–,–,1 to 9.99
O=[N+]([O-])c1ccc2c(c1)C(c1ccccc1Cl)=Nc1c(n[nH]c1CCc1ccccc1)N2,10 to 30,10 to 30,10 to 30,1 to 9.99
Cc1[nH]nc2c1N=C(c1ccccc1)c1cc(I)ccc1N2,–,–,10 to 30,1 to 9.99
c1ccc(C2=Nc3c[nH]nc3Nc3ccccc32)cc1,10 to 30,–,10 to 30,1 to 9.99
O=[N+]([O-])c1ccc2c(c1)C(c1ccccc1Cl)=Nc1c(n[nH]c1-c1ccccc1C(F)(F)F)N2,–,–,10 to 30,10 to 30
O=[N+]([O-])c1ccc2c(c1)C(c1ccccc1Cl)=Nc1c(n[nH]c1-c1cccs1)N2,10 to 30,–,10 to 30,0.01 to 0.99
O=[N+]([O-])c1ccc2c(c1)C(c1ccccc1Cl)=Nc1c(n[nH]c1-c1ccc(-n3cccc3)cc1)N2,10 to 30,–,–,10 to 30
Clc1ccc2c(c1)C(c1ccccc1Cl)=Nc1c[nH]nc1N2,–,–,–,10 to 30
Cc1ccsc1-c1[nH]nc2c1N=C(c1ccccc1Cl)c1cc([N+](=O)[O-])ccc1N2,10 to 30,–,–,0.01 to 0.99
O=[N+]([O-])c1ccc2c(c1)C(c1ccccc1)=Nc1c(n[nH]c1-c1ncc[nH]1)N2,–,–,–,1 to 9.99
Fc1ccccc1C1=Nc2c[nH]nc2Nc2ccc(Cl)cc21,–,–,–,1 to 9.99
Cc1ccc(-c2[nH]nc3c2N=C(c2ccccc2Cl)c2cc([N+](=O)[O-])ccc2N3)cc1,–,–,–,1 to 9.99
Fc1ccccc1C1=Nc2c[nH]nc2Nc2ccccc21,10 to 30,–,10 to 30,1 to 9.99
O=[N+]([O-])c1ccc2c(c1)C(c1ccccc1Cl)=Nc1c(n[nH]c1-c1cc3ccccc3[nH]1)N2,10 to 30,–,10 to 30,1 to 9.99

# Next, values leading:
IC50 ([1]; hct 116) [µM],IC50 ([1]; mda-mb-435) [µM],IC50 ([1]; sw480) [µM],IC50 [2] [µM],SMILES
10 to 30,10 to 30,10 to 30,1 to 9.99,O=[N+]([O-])c1ccc2c(c1)C(c1ccccc1Cl)=Nc1c(n[nH]c1Cc1ccccc1)N2
–,10 to 30,–,0.01 to 0.99,O=[N+]([O-])c1ccc2c(c1)C(c1ccccc1Cl)=Nc1c(n[nH]c1-[n+]1ccc[nH]1)N2
10 to 30,–,10 to 30,1 to 9.99,Cc1ccccc1-c1[nH]nc2c1N=C(c1ccccc1Cl)c1cc([N+](=O)[O-])ccc1N2
–,10 to 30,–,1 to 9.99,CCOC(=O)c1[nH]nc2c1N=C(c1ccccc1Cl)c1cc([N+](=O)[O-])ccc1N2
10 to 30,–,–,1 to 9.99,CS(=O)(=O)c1ccc2c(c1)C(c1ccccc1)=Nc1c[nH]nc1N2
–,–,10 to 30,1 to 9.99,Fc1ccc2c(c1)C(c1ccccc1F)=Nc1c[nH]nc1N2
–,–,–,1 to 9.99,O=[N+]([O-])c1ccc2c(c1)C(c1ccccc1)=Nc1c(n[nH]c1-c1cccnc1)N2
–,–,–,1 to 9.99,O=C(O)c1ccc2c(c1)C(c1ccccc1F)=Nc1c[nH]nc1N2
–,–,–,10 to 30,O=[N+]([O-])c1ccc2c(c1)C(c1ccccc1)=Nc1c(n[nH]c1-c1ccccc1F)N2
–,10 to 30,–,10 to 30,O=[N+]([O-])c1ccc2c(c1)C(c1ccccc1Cl)=Nc1c(n[nH]c1-[o+]1ccnn1)N2
–,–,–,1 to 9.99,O=C(c1ccc2c(c1)C(c1ccccc1F)=Nc1c[nH]nc1N2)N(CCO)CCO
–,–,–,1 to 9.99,N#Cc1ccccc1-c1[nH]nc2c1N=C(c1ccccc1Cl)c1cc([N+](=O)[O-])ccc1N2
–,–,–,1 to 9.99,Fc1ccccc1C1=Nc2c[nH]nc2Nc2ccc(I)cc21
10 to 30,10 to 30,10 to 30,1 to 9.99,Nc1ccc2c(c1)C(c1ccccc1Cl)=Nc1c[nH]nc1N2
–,–,–,1 to 9.99,CN(C)C(=O)c1[nH]nc2c1N=C(c1ccccc1Cl)c1cc([N+](=O)[O-])ccc1N2
